Source: BindingDB's records for doi:10.1021/jm00395a016 (Medical Research Division of American Cyanamid, 1988)

Target: Thromboxane-A synthase (Rattus norvegicus)
Test: Tested for inhibition of thromboxane Synthetase from spontaneously hypertensive rats

SMILES: CC(Cn1ccnc1)Cn1c(=O)[nH]c2cc(Cl)ccc2c1=O (stereo unspecified)
- IC50: 10 nM
